This passage reports Ki, Emax and Activity results from ChEMBL document CHEMBL1141234, “Synthesis and SAR of highly potent dual 5-HT1A and 5-HT1B antagonists as potential antidepressant drugs” (Bioorg Med Chem Lett, 2005).

In assay [1] the target is T1, 5-hydroxytryptamine receptor 1A (Homo sapiens, UniProt P08908).
T1 sequence (P08908 whole entry): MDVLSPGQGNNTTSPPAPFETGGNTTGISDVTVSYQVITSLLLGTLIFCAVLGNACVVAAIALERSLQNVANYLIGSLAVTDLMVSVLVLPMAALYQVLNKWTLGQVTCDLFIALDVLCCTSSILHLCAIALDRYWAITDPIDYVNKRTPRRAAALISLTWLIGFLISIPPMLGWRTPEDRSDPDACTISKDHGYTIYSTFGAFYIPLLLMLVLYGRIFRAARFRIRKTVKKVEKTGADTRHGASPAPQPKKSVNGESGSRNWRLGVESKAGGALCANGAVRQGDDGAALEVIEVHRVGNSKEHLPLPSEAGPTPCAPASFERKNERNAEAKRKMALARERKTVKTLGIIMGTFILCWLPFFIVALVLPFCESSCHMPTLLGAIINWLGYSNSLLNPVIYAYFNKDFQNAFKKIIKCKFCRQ
Nature of the assay: Displacement of [35S]GTP-gamma-S from human recombinant 5HT1A receptor. The class given is functional. For orientation: In a radioligand displacement assay an active substance lowers the binding of a labelled ligand.

The target in assay [2] is T2, 5-hydroxytryptamine receptor 1A (Homo sapiens) (UniProt P08908).
T2 sequence (whole entry): T1 sequence (P08908 whole entry)
Nature of the assay: Intrinsic activity for 5HT1A receptor in [35S]GTP-gamma-S assay. It is filed as functional. Background: GTPγS is a poorly hydrolysed GTP analogue; its binding reports G protein activation.

Assay [3] concerns the target T3, Adrenergic receptor alpha-1 (Homo sapiens, UniProt P35348+P25100+P35368).
T3 sequence (P35348 whole entry): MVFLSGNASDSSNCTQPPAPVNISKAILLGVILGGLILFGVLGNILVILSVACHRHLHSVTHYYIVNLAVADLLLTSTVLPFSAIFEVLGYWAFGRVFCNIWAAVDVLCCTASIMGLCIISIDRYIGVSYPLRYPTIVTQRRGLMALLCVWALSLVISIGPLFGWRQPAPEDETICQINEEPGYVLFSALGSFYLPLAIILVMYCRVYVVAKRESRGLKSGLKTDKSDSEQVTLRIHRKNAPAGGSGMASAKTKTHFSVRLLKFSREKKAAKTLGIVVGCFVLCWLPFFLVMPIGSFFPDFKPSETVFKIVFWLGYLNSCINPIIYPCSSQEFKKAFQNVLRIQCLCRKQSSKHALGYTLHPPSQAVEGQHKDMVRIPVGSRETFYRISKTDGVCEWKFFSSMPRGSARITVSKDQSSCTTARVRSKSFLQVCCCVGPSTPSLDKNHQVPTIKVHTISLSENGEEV
T3 sequence (P25100 whole entry): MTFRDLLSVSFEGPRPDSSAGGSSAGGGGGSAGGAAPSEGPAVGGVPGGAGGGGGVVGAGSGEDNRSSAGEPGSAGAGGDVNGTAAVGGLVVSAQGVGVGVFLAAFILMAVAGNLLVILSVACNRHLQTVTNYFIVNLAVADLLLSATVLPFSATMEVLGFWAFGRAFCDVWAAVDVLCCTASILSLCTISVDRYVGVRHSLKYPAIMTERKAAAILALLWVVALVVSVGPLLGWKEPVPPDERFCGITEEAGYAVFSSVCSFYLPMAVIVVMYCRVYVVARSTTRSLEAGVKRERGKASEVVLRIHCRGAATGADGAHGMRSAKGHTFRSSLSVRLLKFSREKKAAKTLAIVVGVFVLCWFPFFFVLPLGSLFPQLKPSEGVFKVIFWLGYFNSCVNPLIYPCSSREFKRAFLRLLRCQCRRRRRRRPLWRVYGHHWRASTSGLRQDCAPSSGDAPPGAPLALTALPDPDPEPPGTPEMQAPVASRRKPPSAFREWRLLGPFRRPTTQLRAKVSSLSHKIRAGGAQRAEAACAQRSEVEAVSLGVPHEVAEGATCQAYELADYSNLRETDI
T3 sequence (P35368 whole entry): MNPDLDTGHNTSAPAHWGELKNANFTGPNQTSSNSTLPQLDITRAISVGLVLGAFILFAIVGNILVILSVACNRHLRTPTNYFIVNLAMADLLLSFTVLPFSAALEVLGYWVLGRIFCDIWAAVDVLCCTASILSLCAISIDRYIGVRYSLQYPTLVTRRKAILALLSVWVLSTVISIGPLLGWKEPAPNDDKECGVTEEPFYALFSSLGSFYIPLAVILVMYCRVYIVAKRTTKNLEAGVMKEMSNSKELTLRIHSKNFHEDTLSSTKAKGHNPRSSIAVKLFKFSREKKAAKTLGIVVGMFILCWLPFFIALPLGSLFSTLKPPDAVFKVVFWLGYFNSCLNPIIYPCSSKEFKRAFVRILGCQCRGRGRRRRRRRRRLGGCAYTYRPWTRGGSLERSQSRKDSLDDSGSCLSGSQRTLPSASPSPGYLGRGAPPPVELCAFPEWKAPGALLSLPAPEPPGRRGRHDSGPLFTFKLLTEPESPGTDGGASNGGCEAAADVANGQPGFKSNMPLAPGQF
In words: Inhibitory activity against Adrenergic alpha-1 receptor. It is filed as protein assay.

Assay [4] has as its target T2, 5-hydroxytryptamine receptor 1A (Homo sapiens). Nature of the assay: Functional activity in [35S]GTP-gamma-S assay for 5HT1A receptor.
Assay [5] concerns the target T4, 5-hydroxytryptamine receptor 1B (Homo sapiens, UniProt P28222). In words: Intrinsic activity for 5HT1B receptor in FLIPR assay. The class given is functional.
Assay [6] concerns the target T4, 5-hydroxytryptamine receptor 1B. Nature of the assay: Functional activity in FLIPR assay for 5HT1B receptor.
Assay [7] shares this target. Nature of the assay: Inhibitory activity against human recombinant 5HT1B receptor co-expressed with G-protein chimera Gqo5 in HEK293 cells by FLIPR. It is filed as functional, cell-based.

T4 sequence (P28222 whole entry): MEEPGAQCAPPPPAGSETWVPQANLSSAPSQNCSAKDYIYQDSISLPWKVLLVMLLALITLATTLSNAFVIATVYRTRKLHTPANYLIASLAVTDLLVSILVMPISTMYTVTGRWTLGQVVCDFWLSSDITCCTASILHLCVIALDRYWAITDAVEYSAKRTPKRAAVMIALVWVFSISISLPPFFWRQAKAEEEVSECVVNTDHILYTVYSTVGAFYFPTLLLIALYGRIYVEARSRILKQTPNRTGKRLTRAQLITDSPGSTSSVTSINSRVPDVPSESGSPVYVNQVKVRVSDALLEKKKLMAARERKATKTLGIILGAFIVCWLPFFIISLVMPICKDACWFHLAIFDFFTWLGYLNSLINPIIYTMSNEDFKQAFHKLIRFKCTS

Take `CN1CCc2c(sc3ncn(CCN4CCN(c5ccccc5Oc5ccccc5)CC4)c(=O)c23)C1`: the Ki in assay [1] amounted to 0.9 nM; in assay [3], 0.5 nM; in assay [7], 1.1 nM. The values for the Emax in assay [2] and in assay [5] were 10% and 20%, respectively. The Activity entry in assay [4] (filed as partial agonist) and in assay [6] (filed as partial agonist) was “Partial agonist” in each case.
Consider `COc1ccc(OC)c(N2CCN(CCn3cnc4sc5c(c4c3=O)CCN(C)C5)CC2)c1`, for which the Ki in assay [1] is 24.2 nM; in assay [3] it was 8.4 nM; in assay [7], 50.2 nM. Besides, the results for the Emax in assay [2] and in assay [5] were < 10% and < 20%, respectively. Besides, the Activity entry in assay [4] (filed as antagonist) and in assay [6] (filed as antagonist) was “Antagonist” in each case.
For the compound `COc1ccc2ccccc2c1N1CCN(CCn2cnc3sc4c(c3c2=O)CCN(C)C4)CC1`, the Ki in assay [1] was found to be 11.8 nM; in assay [3], 4.5 nM; in assay [7] it was 5.4 nM. Further, the figures for the Emax in assay [2] and in assay [5] were 10% and 20%, respectively. In addition, the Activity result in assay [4] (filed as partial agonist) and in assay [6] (filed as partial agonist) was “Partial agonist” each time.
Take `COc1c(Cl)cc(Cl)cc1N1CCN(CCn2cnc3sc4c(c3c2=O)CCN(C)C4)CC1`: the Ki in assay [1] was 25.8 nM; in assay [3], 14.8 nM; in assay [7], 3.8 nM. Further, the Emax in assay [2] was > 70%; in assay [5], 20%. Moreover, the Activity result is “Agonist” in assay [4] (filed as agonist) and “Partial agonist” in assay [6] (filed as partial agonist).
In the case of `Cc1ccccc1N1CCN(CCn2cnc3sc4c(c3c2=O)CCN(C)C4)CC1`, the results for the Ki in assay [1], in assay [3] and in assay [7] were 2.9 nM, 1.7 nM and 3.5 nM, respectively. Besides, the Emax in assay [2] is < 10%; in assay [5], 20%. The figures for the Activity entry in assay [4] (filed as antagonist) and in assay [6] (filed as partial agonist) were “Antagonist” and “Partial agonist”, respectively.
For `CN1CCc2c(sc3ncn(CCN4CCN(c5ccccc5C#N)CC4)c(=O)c23)C1`, the Ki in assay [1] worked out at 2.5 nM; in assay [3], 1.8 nM; in assay [7], 1.4 nM. Also, the Emax was 10% in assay [2] and > 80% in assay [5]. Further, the Activity entry is “Partial agonist” in assay [4] (filed as partial agonist) and “Agonist” in assay [6] (filed as agonist).
On to `CN1CCc2c(sc3ncn(CCN4CCN(c5cccc6cccnc56)CC4)c(=O)c23)C1`, for which the values for the Ki in assay [1], in assay [3] and in assay [7] were 0.2 nM, 1.2 nM and 0.3 nM, respectively. The values for the Emax in assay [2] and in assay [5] were 10% and 20%, respectively. Further, the Activity entry in assay [4] (filed as partial agonist) and in assay [6] (filed as partial agonist) was “Partial agonist” each time.
As to `COc1cc(Cl)c(Cl)cc1N1CCN(CCn2cnc3sc4c(c3c2=O)CCN(C)C4)CC1`, the Ki stood at 2.5 nM in assay [1], 0.2 nM in assay [3] and 4.9 nM in assay [7]. The Emax in assay [2] is 10%; in assay [5], < 20%. For the same compound, the values for the Activity entry in assay [4] (filed as partial agonist) and in assay [6] (filed as antagonist) were “Partial agonist” and “Antagonist”, respectively.
As to `CN1CCc2c(sc3ncn(CCN4CCN(c5ccccc5Cl)CC4)c(=O)c23)C1`, the Ki worked out at 2.8 nM in assay [1], 1 nM in assay [3] and 1.7 nM in assay [7]. Besides, the Emax in assay [2] amounted to 10%; in assay [5], 20%. The Activity entry in assay [4] (filed as partial agonist) and in assay [6] (filed as partial agonist) was “Partial agonist” each time.
Regarding `COc1ccccc1N1CCN(CCn2cnc3sc4c(c3c2=O)CCN(C)C4)CC1`, the Ki in assay [1] turned out to be 0.7 nM; in assay [3], 0.4 nM; in assay [7], 1.4 nM. In addition, the values for the Emax in assay [2] and in assay [5] were < 10% and 20%, respectively. In addition, the Activity entry is “Antagonist” in assay [4] (filed as antagonist) and “Partial agonist” in assay [6] (filed as partial agonist).
For the compound `CN1CCc2c(sc3ncn(CCN4CCN(c5ccccc5OCC(C)(C)C)CC4)c(=O)c23)C1`, the Ki in assay [1] came to 2.5 nM; in assay [3] it was 0.2 nM; in assay [7] it was 5.4 nM. For the same compound, the Emax is 10% in assay [2] and < 20% in assay [5]. Also, the values for the Activity result in assay [4] (filed as partial agonist) and in assay [6] (filed as antagonist) were “Partial agonist” and “Antagonist”, respectively.
For `CC(C)Oc1ccccc1N1CCN(CCn2cnc3sc4c(c3c2=O)CCN(C)C4)CC1`, the Ki came to 0.7 nM in assay [1], 0.1 nM in assay [3] and 2.5 nM in assay [7]. Further, the Emax is 10% in assay [2] and < 20% in assay [5]. In addition, the Activity result in assay [4] (filed as partial agonist) was “Partial agonist”; in assay [6] (filed as antagonist), “Antagonist”.
Regarding `COc1ccc(Cl)cc1N1CCN(CCn2cnc3sc4c(c3c2=O)CCN(C)C4)CC1`, the Ki in assay [1] turned out to be 3 nM; in assay [3], 0.1 nM; in assay [7] it was 70.3 nM. Moreover, the Emax in assay [2] is < 10%; in assay [5], < 20%. For the same compound, the Activity result in assay [4] (filed as antagonist) and in assay [6] (filed as antagonist) was “Antagonist” throughout.
On to `CN1CCc2c(sc3ncn(CCN4CCN(c5nccc6ccccc56)CC4)c(=O)c23)C1`, for which the Ki in assay [1] came to 0.7 nM; in assay [3], 41.1 nM; in assay [7], 0.5 nM. The Emax worked out at 10% in assay [2] and 20% in assay [5]. For the same compound, the Activity entry in assay [4] (filed as partial agonist) and in assay [6] (filed as partial agonist) was “Partial agonist” throughout.
For the compound `CN1CCc2c(sc3ncn(CCN4CCN(c5ccccc5-c5ccccc5)CC4)c(=O)c23)C1`, the results for the Ki in assay [1], in assay [3] and in assay [7] were 4.1 nM, 1.1 nM and 1.1 nM, respectively. Moreover, the Emax in assay [2] is 10%; in assay [5], < 20%. The Activity entry in assay [4] (filed as partial agonist) was “Partial agonist”; in assay [6] (filed as antagonist), “Antagonist”.
As to `COc1ccc(C(F)(F)F)cc1N1CCN(CCn2cnc3sc4c(c3c2=O)CCN(C)C4)CC1`, the figures for the Ki in assay [1], in assay [3] and in assay [7] were 104 nM, 18 nM and 42.3 nM, respectively.
For `COc1c(Cl)cccc1N1CCN(CCn2cnc3sc4c(c3c2=O)CCN(C)C4)CC1`, the Ki in assay [1] turned out to be 2.5 nM; in assay [3] it was 7 nM; in assay [7] it was 0.5 nM. Further, the results for the Emax in assay [2] and in assay [5] were 10% and 20%, respectively. In addition, the Activity entry in assay [4] (filed as partial agonist) and in assay [6] (filed as partial agonist) was “Partial agonist” in each case.
On to `CN1CCc2c(sc3ncn(CCN4CCN(c5cccc6ccccc56)CC4)c(=O)c23)C1`, for which the Ki in assay [1] turned out to be 0.7 nM; in assay [3] it was 13.2 nM; in assay [7] it was 0.5 nM. The Emax turned out to be 10% in assay [2] and 20% in assay [5]. Besides, the Activity result in assay [4] (filed as partial agonist) and in assay [6] (filed as partial agonist) was “Partial agonist” each time.
On to `COc1ccc(-c2ccccc2)cc1N1CCN(CCn2cnc3sc4c(c3c2=O)CCN(C)C4)CC1`, for which the Ki stood at 429 nM in assay [1], 0.1 nM in assay [3] and 116 nM in assay [7].

Broadly, the Ki is the equilibrium dissociation constant of an inhibitor or competing ligand from its target. One may read the Emax as the greatest response seen or fitted, relative to the assay's reference.
